Patent US8748388B2, “Antitumoral compounds” (Pharma Mar, S.A., priority 2008, dated 2014)
Bridge positions count the residues as written; N and C are the ends. Square brackets hold non-standard residues; d marks the D form. Peptide text beside a SMILES is read from it. I, II: the chains in the order shown. * marks the point of attachment. Quinaldoyl(3-OH) = O=C(c1nc2ccccc2cc1O)*; NMeC = CN[C@@H](CS)C(=O)O; dDap = NC[C@@H](N)C(=O)O

Tests used:
[1] = test system: MDA-MB-231; test: SRB colorimetric cytotoxicity assay, MDA-MB-231; type: cell-based, human; details: MDA-MB-231, 48 hours exposure; for CC50: read-out: LC50 (the source's name)
Text: (§1) The aim of this assay is to evaluate the in vitro cytostatic (ability to delay or arrest tumor cell growth) or cytotoxic (ability to kill tumor cells) activity of the samples being tested.
(§2) A colorimetric type of assay, using sulforhodamine B (SRB) reaction has been adapted for a quantitative measurement of cell growth and viability (following the technique described by Skehan P et al. J. Natl. Cancer Inst. 1990, 82, 1107-1112).
(§3) This form of assay employs SBS-standard 96-well cell culture microplates (Faircloth et al. Methods in cell science, 1988, 11(4), 201-205; Mosmann et al. Journal of. Immunological. Methods, 1983, 65(1-2), 55-63). All the cell lines used in this study, derived from different types of human cancer, were obtained from the American Type Culture Collection (ATCC).
(§4) Cells were maintained in Dulbecco's Modified Eagle Medium (DMEM) supplemented with 10% Fetal Bovine Serum (FBS), 2 mM L-glutamine, 100 U/mL penicillin and 100 U/mL streptomycin at 37° C., 5% CO2 and 98% humidity. For the experiments, cells were harvested from subconfluent cultures using trypsinization and resuspended in fresh medium before counting and plating.
(§5) Cells were seeded in 96 well microtiter plates at 5×10^3 cells per well in aliquots of 150 μL, and allowed to attach to the plate surface for 18 hours in drug free medium. One control (untreated) plate of each cell line was fixed (as described below) and used for time zero reference value. Afterwards, test samples were added to the cultures in ten serial dilutions, in aliquots of 50 μL, ranging from 10 to 0.00262 μg/mL. After 48 hours exposure, the antitumor effect was estimated by the SRB method: Briefly, cells were washed twice with PBS, fixed for 15 min in 1% glutaraldehyde solution, rinsed twice in PBS, and stained in 0.4% SRB solution for 30 min at room temperature. Cells were then rinsed several times with 1% acetic acid solution and air-dried. SRB was then extracted in 10 mM trizma base solution and the absorbance measured in an automated spectrophotometric plate reader at 490 nm. Cell survival was expressed as percentage of control cell growth. The final effect of the sample being tested was estimated by applying the NCl algorithm (Boyd M R and Paull K D. Drug Dev. Res. 1995, 34, 91-104).
(§6) Using the mean±SD of triplicate cultures, a dose-response curve was automatically generated using nonlinear regression analysis. Three reference parameters were calculated (NCl algorithm) by automatic interpolation: GI50=concentration that produces 50% growth inhibition; TGI=total growth inhibition (cytostatic effect) and LC50=concentration that produces 50% net cell killing (cytotoxic effect).

[2] = test system: HT29; test: SRB colorimetric cytotoxicity assay, HT29; type: cell-based, human; details: HT29, 48 hours exposure; for CC50: read-out: LC50 (the source's name)
Text: as §1, §2, §3, §4, §5, §6

[3] = test system: A549; test: SRB colorimetric cytotoxicity assay, A549; type: cell-based, human; details: A549, 48 hours exposure; for CC50: read-out: LC50 (the source's name)
Text: as §1, §2, §3, §4, §5, §6

[4] = test system: leukemia cell line L1210; details: Boger and Lee 2000; cited from earlier work

Compound | GI50 [1] | TGI [1] | CC50 [1] | GI50 [2] | TGI [2] | CC50 [2] | GI50 [3] | TGI [3] | CC50 [3] | cytotoxic activity compared with Triostin A [4]
CSC[C@H]1C(=O)NC[C@@H](NC(=O)c2nc3ccccc3cc2O)C(=O)NCC(=O)N(C)[C@H]2CSSC[C@@H](C(=O)N1C)N(C)C(=O)CNC(=O)[C@H](NC(=O)c1nc3ccccc3cc1O)CNC(=O)[C@H](CSC)N(C)C2=O [Azathiocoraline] (I: {Quinaldoyl(3-OH)}-[dDap]G[NMeC][NMeC](Me) / II: {Quinaldoyl(3-OH)}-[dDap]G[NMeC][NMeC](Me); amide I:1-II:C, I:C-II:1; disulfide I:3-II:3) | 2140 nM | >8.90E−06 Molar | > 8900 nM | 3120 nM | >8.90E−06 Molar | > 8900 nM | 3740 nM | >8.90E−06 Molar | > 8900 nM | –
CSC[C@H]1C(=O)N(C)C[C@@H](NC(=O)c2nc3ccccc3cc2O)C(=O)NCC(=O)N(C)[C@H]2CSSC[C@@H](C(=O)N1C)N(C)C(=O)CNC(=O)[C@H](NC(=O)c1nc3ccccc3cc1O)CN(C)C(=O)[C@H](CSC)N(C)C2=O [Compound 2, {[3-HQA-D-Dap(Me&^1)-Gly-NMeCys(&^2)—NMe-Cys(Me)&^3][3-HQA-D-Dap(Me&^3)-Gly-NMeCys(&^2)—NMe-Cys(Me)&^1]] | 4.08 nM | 4.26E−08 Molar | 373 nM | 20.8 nM | 1.13E−07 Molar | 747 nM | 3.39 nM | 2.00E−08 Molar | 165 nM | –
Azatriostin A | – | – | – | – | – | – | – | – | – | two orders of magnitude less active
